According to ChEMBL document CHEMBL1201862, “PubChem BioAssay data set” (2004):
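Assay format: 96-well plates, 48-hour exposure. Here, GI50 denotes the concentration required for 50% inhibition of growth.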 Calls of active or inactive are those of the source. No stated cut-off is given here; in the data, active = GI50 up to about 1.1 µM and inactive = higher.

Key:
Experiment in all cases: NCI-60 cell line screen, 48 h
SNB-19 = system: SNB-19
A498 = system: A498
OVCAR-8 = system: OVCAR-8
DU-145 = system: DU-145
Malme-3M = system: Malme-3M
HCT-15 = system: HCT-15
HL-60 = system: HL-60
COLO 205 = system: COLO 205
SW-620 = system: SW-620
LOX IMVI = system: LOX IMVI
U-251 = system: U-251
MCF7 = system: MCF7
SK-MEL-28 = system: SK-MEL-28
HT-29 = system: HT-29
UACC-257 = system: UACC-257
OVCAR-4 = system: OVCAR-4
SF-268 = system: SF-268
MOLT-4 = system: MOLT-4
BT-549 = system: BT-549

| SMILES | GI50 (SNB-19) | GI50 (A498) | GI50 (OVCAR-8) | GI50 (DU-145) | GI50 (Malme-3M) | GI50 (HCT-15) [µM] | GI50 (HL-60) | GI50 (COLO 205) | GI50 (SW-620) | GI50 (LOX IMVI) | GI50 (U-251) | GI50 (MCF7) | GI50 (SK-MEL-28) | GI50 (HT-29) | GI50 (UACC-257) | GI50 (OVCAR-4) | GI50 (SF-268) | GI50 (MOLT-4) | GI50 (BT-549) |
| --- | --- | --- | --- | --- | --- | --- | --- | --- | --- | --- | --- | --- | --- | --- | --- | --- | --- | --- | --- |
| O=C1OCC(CN2CCC(n3c(=O)[nH]c4ccccc43)CC2)=C1c1ccccc1 | 26.1 µM (inactive) | 23.5 µM (inactive) | 17.1 µM (inactive) | 24.8 µM (inactive) | 22.8 µM (inactive) | 23 | 15.5 µM (inactive) | 14.6 µM (inactive) | 34.9 µM (inactive) | 21.4 µM (inactive) | 35.5 µM (inactive) | 28.2 µM (inactive) | 23.4 µM (inactive) | 19.7 µM (inactive) | 23.4 µM (inactive) | 18.7 µM (inactive) | 28.1 µM (inactive) | 22 µM (inactive) | – |
| O=C(O)CCc1ccc2c(c1)CC1(Cc3ccccc3C1)C2 | – | > 100 µM (inactive) | > 100 µM (inactive) | – | > 100 µM (inactive) | > 100 | – | 78 µM (inactive) | – | > 100 µM (inactive) | > 100 µM (inactive) | > 100 µM (inactive) | – | > 100 µM (inactive) | > 100 µM (inactive) | 49.3 µM (inactive) | – | > 100 µM (inactive) | – |
| CC1(C)C(C#N)=[N+]([O-])C(C)(C)N1O | > 100 µM (inactive) | – | > 100 µM (inactive) | > 100 µM (inactive) | > 100 µM (inactive) | > 100 | 26.7 µM (inactive) | > 100 µM (inactive) | 72.3 µM (inactive) | 77.3 µM (inactive) | > 100 µM (inactive) | 79.4 µM (inactive) | > 100 µM (inactive) | > 100 µM (inactive) | > 100 µM (inactive) | > 100 µM (inactive) | > 100 µM (inactive) | 35.5 µM (inactive) | – |
| OC(c1ccccc1)c1c(-c2ccccc2)oc(-c2ccccc2)c1C(O)c1ccccc1 (stereo not drawn) | 14.8 µM (inactive) | 16.8 µM (inactive) | – | 13.7 µM (inactive) | 12.3 µM (inactive) | 12.1 | 3.26 µM (inactive) | 5.87 µM (inactive) | 14.7 µM (inactive) | 11.1 µM (inactive) | 14 µM (inactive) | 4.37 µM (inactive) | 14.2 µM (inactive) | 11.1 µM (inactive) | – | < 0.01 µM (active) | 12 µM (inactive) | 5.06 µM (inactive) | – |
| NC(=O)N/N=C(\Cc1cc(=O)oc2cc(O)ccc12)C(=O)Nc1ccccc1C(N)=O | > 100 µM (inactive) | – | > 100 µM (inactive) | > 100 µM (inactive) | – | > 100 | > 100 µM (inactive) | > 100 µM (inactive) | > 100 µM (inactive) | > 100 µM (inactive) | > 100 µM (inactive) | > 100 µM (inactive) | > 100 µM (inactive) | > 100 µM (inactive) | > 100 µM (inactive) | > 100 µM (inactive) | > 100 µM (inactive) | > 100 µM (inactive) | > 100 µM (inactive) |
| COc1ccc(-n2c(=O)[nH]n(C(C)=O)c2=O)cc1 | > 100 µM (inactive) | > 100 µM (inactive) | > 100 µM (inactive) | > 100 µM (inactive) | > 100 µM (inactive) | > 100 | > 100 µM (inactive) | > 100 µM (inactive) | > 100 µM (inactive) | > 100 µM (inactive) | > 100 µM (inactive) | > 100 µM (inactive) | > 100 µM (inactive) | > 100 µM (inactive) | > 100 µM (inactive) | > 100 µM (inactive) | > 100 µM (inactive) | > 100 µM (inactive) | – |
| O=c1c(F)cn2c(=O)n1CCCCCCCn1c(=O)c(F)cn(c1=O)CCCCCCC2 | > 100 µM (inactive) | 32 µM (inactive) | 59.4 µM (inactive) | 1.59 µM (inactive) | 35.7 µM (inactive) | > 100 | 49.5 µM (inactive) | > 100 µM (inactive) | > 100 µM (inactive) | > 100 µM (inactive) | > 100 µM (inactive) | > 100 µM (inactive) | 3.13 µM (inactive) | 50.4 µM (inactive) | 36.4 µM (inactive) | 30.1 µM (inactive) | 0.59 µM (active) | > 100 µM (inactive) | – |
| CCOC(=O)[C@@H]1ON2O[C@H](OC3CCCC3(c3ccccc3)c3ccccc3)C[C@H]3OC(=O)[C@@H]1C32 (stereo partly drawn) | – | 35.2 µM (inactive) | 35.3 µM (inactive) | 25.5 µM (inactive) | – | 48.3 | 22.2 µM (inactive) | 40.6 µM (inactive) | 28.2 µM (inactive) | 27.2 µM (inactive) | 52.4 µM (inactive) | 34.4 µM (inactive) | – | 23.3 µM (inactive) | 52.4 µM (inactive) | – | 95.9 µM (inactive) | 45 µM (inactive) | – |
| Nc1ncnc2c1ncn2C1CCC(COS(N)(=O)=O)C1 (stereo not drawn) | > 100 µM (inactive) | – | > 100 µM (inactive) | > 100 µM (inactive) | > 100 µM (inactive) | > 100 | 31.1 µM (inactive) | > 100 µM (inactive) | > 100 µM (inactive) | 37 µM (inactive) | > 100 µM (inactive) | 58.7 µM (inactive) | > 100 µM (inactive) | > 100 µM (inactive) | > 100 µM (inactive) | > 100 µM (inactive) | > 100 µM (inactive) | 46.9 µM (inactive) | – |
| COC(CN(C)C(=O)C(C)NC(=O)c1ccccc1)OC (stereo not drawn) | – | – | > 100 µM (inactive) | > 100 µM (inactive) | > 100 µM (inactive) | > 100 | – | > 100 µM (inactive) | > 100 µM (inactive) | – | > 100 µM (inactive) | > 100 µM (inactive) | – | > 100 µM (inactive) | > 100 µM (inactive) | > 100 µM (inactive) | > 100 µM (inactive) | > 100 µM (inactive) | > 100 µM (inactive) |
| Clc1ccc(Cl)c(/N=N/c2cc3c4c(c2)CCCN4CCC3)c1 | > 10 µM (inactive) | > 10 µM (inactive) | > 10 µM (inactive) | > 10 µM (inactive) | > 10 µM (inactive) | > 10 | 5 µM (inactive) | > 10 µM (inactive) | > 10 µM (inactive) | > 10 µM (inactive) | > 10 µM (inactive) | > 10 µM (inactive) | > 10 µM (inactive) | > 10 µM (inactive) | > 10 µM (inactive) | > 10 µM (inactive) | > 10 µM (inactive) | > 10 µM (inactive) | – |
| Cc1cc(/N=N/c2ccccc2C)ccc1N | 31 µM (inactive) | 24.3 µM (inactive) | 15.2 µM (inactive) | – | 19 µM (inactive) | 12.1 | 2.96 µM (inactive) | 18.4 µM (inactive) | 19.6 µM (inactive) | 11.4 µM (inactive) | 14.3 µM (inactive) | 4.06 µM (inactive) | 21 µM (inactive) | 17.3 µM (inactive) | 17.9 µM (inactive) | 19.4 µM (inactive) | – | 2.65 µM (inactive) | 10.6 µM (inactive) |
| O=C(/C=C/c1ccc(O)c(O)c1)OCc1ccccc1 [BENZYL CAFFEATE] | 27.6 µM (inactive) | 20.5 µM (inactive) | – | 15.1 µM (inactive) | 11.8 µM (inactive) | 5.4 | 0.938 µM (active) | 22.4 µM (inactive) | 17.4 µM (inactive) | 15.5 µM (inactive) | 14.5 µM (inactive) | 7.8 µM (inactive) | 6.37 µM (inactive) | 32.3 µM (inactive) | 21.2 µM (inactive) | 8.97 µM (inactive) | 10.9 µM (inactive) | 2.28 µM (inactive) | – |
